Reference: patent publication US20100003271A1, “NITRIC OXIDE INCREASES SWITCHING OF T CELLS INTO T REGULATORY CELLS” (BOARD OF REGENTS OF THE UNIVERSITY OF TEXAS SYSTEM, priority 2006, published 2010)

Experiments:
Type in all cases: cell-based, human
[1] = tested on: PBLs challenged with HLA-mismatched alloantigen; experiment: Number of Treg cells generated in alloactivated PBL culture; settings: 100 μM SNAP, 60×10^6 PBLs, 5-day culture, FIG. 5A
Experimental: Alloactivation was set up by co-culturing responder PBLs (1-2×10^6 cells/ml) in a total volume of 35 ml of RPMI-10 with fully HLA mismatched gamma-irradiated (30 Gy) stimulators (1:1 ratio) in the presence of SNAP/DMSO. After 5 days, cells were washed and stained with anti-CD4-FITC and anti-CD25-PE Abs to isolate CD4+CD25^high and CD4+CD25^intermediate populations by FACS sorting. These cell populations were then added to fresh syngeneic PBLs (1×10^5) at different responder/regulator cell ratios (1/0, 1/0.005, 1/0.01, 1/0.05, 1/0.1, 1/0.5, and 1/1) with the same HLA-mismatched irradiated stimulators (1×10^5). Cells cultured in a 200 μl volume of RPMI-10 in 96-well round-bottomed plates for 5 days and pulsed with 1 μCi of [^3H]-thymidine for last 16 hours before harvesting. Cells were collected onto glass filters using an automated multi-sample harvester and the amount of [^3H]-thymidine incorporation was measured with a scintillation counter (Packard, Meridan, Conn.). Proliferative responses are expressed as the mean [^3H]-thymidine incorporation (counts per minute [cpm]) of triplicate wells±SD. In identical experiments, PBLs were activated with PHA (10 μg/ml) to examine the ability of NO-induced CD4+CD25^high population to suppress proliferation of alloantigen-specific MLC.

PBLs = experiment: Generation of CD4+CD25highCD127- Treg cells in PBL culture (FACS)
Experimental: PBLs or purified T cells were either left untreated or treated with 10 μg/ml phytohemagglutanin (PHA, Sigma-Aldrich) at 1×10^6 cells/2 mL in 24-well plates in the absence or presence of various concentrations of SNAP-DMSO, DMSO or SNP and cultured in RPMI-10 for 5 days. Cells were then harvested and stained with anti-human CD4-PerCP, anti-human CD25-APC and anti-human CD127-PE Abs. Flow cytometry analysis measured CD4^+CD25^high CD127^low versus CD4^+CD25^highCD127^high populations using FACSAria with Diva program or FACSCalibur with CellQuest software (BD Pharmingen, San Diego, Calif.).

CD4+CD25- cells = experiment: CFSE labeling and T cell co-culture assay (switching of CD4+CD25- cells); settings: in the presence of Treg cells
Experimental: The CD4^+CD25^negative and CD4^+CD25^high T cell populations were isolated from T cells by cell sorting (FACSAria). Next, CD4^+CD25^negative cells were labeled with carboxyfluorescein diacetate succinimidyl ester (CFDA-SE; cat no C1157, Invitrogen) as described elsewhere (Hans et al., 2005). A stock solution of CFSE (5 mM) was diluted with PBS and added to the CD4^+CD25^negative cells at final concentration of 1 µM per 1×10^6 cells (20 minutes at 37° C.). After three washings, CFSE-labeled CD4^+CD25^negative cells (1×10^6) were co-cultured without or with CD4^+CD25^high cells at 10:1 ratio without or with titrated SNAP or DMSO and 6 hours later cells were activated with PHA (10 μg/ml). Following 5 days cells were harvested and stained with anti-human CD25-APC and anti-human CD127-PE Abs to measure transformation of CD^4+CD25^negative cells to CD25^+CD127^negative cells by FACS. The same cells were added to a primary syngeneic MLC at responder/regulator cell ratios (1/0, 1/0.25, 1/0.5, and 1/1). Cells were cultured for 5 days and the [^3H]-thymidine incorporation was measured as described above.

PHA-activated PBLs = experiment: Intracellular FoxP3 staining of CD4+CD25highCD127- population; settings: PHA-activated PBLs, 30, 50, 100 μM SNAP, 5 days, FIG. 3
Experimental: Foxp3 intracellular staining was carried out using the FITC anti-human Foxp3 staining kit (BDBiosciences, San Diego, Calif.; Cat no 71-5776-40). In brief, PBLs from various groups were incubated with anti-human CD4-PerCP, anti-human CD25-APC and anti-human CD127-PE Abs for 20 minutes at room temperature for surface staining of CD4, CD25 and CD127 molecules, respectively. Cells were then washed, and fixed with Fix/Perm solution (30 minutes at 4° C.) and permeabilized with permeabilization buffer followed by blocking with rat serum (15 minutes at 4° C.). Cells were then stained with FITC-conjugated anti-FoxP3 or isotype control Ab (30 minutes at 4° C.). Cells were analyzed by flow cytometry for intracellular FoxP3 levels in CD4^+CD25^high/CD127^low versus CD4^+CD25^high/CD127^high cells on a FACSAria.

Q: How did the “number of Treg cells generated relative to culture without SNAP” value [1] turn out when `CC(=O)NC(C(=O)O)C(C)(C)SN=O` (racemic) [SNAP, S-Nitroso-N-acetyl-DL-penicillamine] was run?
A: ~3 fold

Q: And the “levels of CD4+CD25+CD127- Treg cells” value (PBLs; PHA-activated PBLs, 5-day culture, FIG. 2B)?
A: significantly increased

Q: What about the “increase in generation of CD4+CD25+CD127-FoxP3+ Treg cells” value (PBLs; low NO concentrations (10-100 μM nitrite)) of the same compound?
A: 3 fold

Q: What about the “number of CD4+CD25+CD127- Treg cells” value (PBLs; non-activated PBLs) of the same compound?
A: did not affect

Q: What about the “switching of CD4+CD25- cells into CD4+CD25+CD127-FoxP3+ T regulatory (Tr1) cells” value (CD4+CD25- cells) of the same compound?
A: elevated switching

Q: What about the “generation of Foxp3-positive CD4+CD25+CD127- Treg cells” value (PHA-activated PBLs) of the same compound?
A: induces generation of Foxp3-positive
